These results are taken from patent US8603993B2, “Compositions and methods modulating MG29 for the treatment of diabetes” (University of Medicine and Dentistry of New Jersey, priority 2009, dated 2013).

The conditions of test [1]: patients treated with Januvia; cited from earlier work.
In test [2] the test system is WT muscle fibers. Nature of the test: Osmotic shock-induced Ca2+ sparks in isolated FDB muscle fibers (confocal imaging). Format: cell-based, mouse. The settings on record: GLP1 treatment. The protocol: (§1) The Ca spark response in skeletal muscle is compromised in mg29−/− and diabetic muscle. […] Considering that we see a similar functional phenotype with glucose handling between the mg29−/− animal and diabetic patients, we tested if the we would see similar defects in Ca signaling as well. Ca spark measurement is performed in 13-16 weeks old control wild type, type I diabetic mice (akita) or type II diabetic mice (db/db). Non-fasted serum glucose levels are recorded from blood samples taken from the tail vein immediately before sacrificing the mice. Following an established protocol in our laboratory, we measured Ca sparks in muscle fibers isolated from the flexor digitorum brevis (FDB). We observed no increase in the frequency of spontaneous resting Ca sparks in db/db muscle fibers (data not shown). […] The degree that the spark frequency decreased could be directly correlated with the blood glucose level of the animal, with more diabetic animals displaying less sparks than those animals with lower blood glucose levels (FIG. 9b).
(§2) FDB skeletal muscle fiber isolation. Mice were sacrificed by cervical dislocation and hind limbs were surgically removed and placed into Isotonic Tyrode with measured osmolarity of 290 mOsm. Flexor Digitorum Brevis (FDB) muscles were excised and transferred into Tyrode supplemented with 0.2% type I collagenase (Sigma C-0310), for 90 minutes at 37° C. Muscle fibers were gently dissociated by several passages through a small diameter pipette. Isolated FDB muscle fibers were plated onto a ΔTC glass-bottomed dishes (Bioptech Inc.) in 1 ml of Tyrode buffer.
(§3) Confocal Ca^2+ imaging and spark analysis. Following individual muscle fiber isolation, the fibers were plated onto a dish containing isotonic tyrode solution (290 mOsm). 10 μM Fluo4-AM, a membrane permeable cytosolic Ca^2+ indicator dye is loaded onto the dish and left incubated for 60 minutes in room temperature along with different drug treatment. Replacing 50% of the dish volume with isotonic Tyrode for three times washed excess dye from the dish. Using brightfield confocal microscopy, fibers were then be screened by light microscopy for intact sarcolemmal membranes and regular striation patterns. Muscle fibers that fulfill these criteria were bathed in the isotonic solution, a physiological resting condition. Measurement of SR Ca^2+ release was performed on a BioRad Radiance-2100 confocal microscope equipped with Argon laser ([…]), Helium-Neon laser (632 nm), and a 40×, 1.3 NA oil immersion objective. An acquisition rate of 2 ms perline was used for line scan imaging, while serial x-y images were acquired at 3.08 s per frame (512×512 pixels). Osmotic shock to disrupt the juxtaposition of membrane coupling was applied to analyze whether knockdown of Bin1 alters the Ca^2+ sparks activity. Initially, fiber was perfused with isotonic solution for 30 seconds prior to applying hypotonic Tyrode solution (170 mOsm) for 1 minute that induces membrane swelling. […] For each animal, 3-4 fibers were treated by osmotic shock, and from each fiber 2 images (comprised of 30000 2 ms linescans of 512 pixels) were recorded. Image analysis and normalization of linescan intensities to the calculated resting fluorescence (F0) and determination of the amplitude and duration of individual events was performed using custom routines for IDL software. […]
(§4) Solutions. […] 5 CaCl2, 2 MgCl2 and 10 HEPES (ph 7.2), with measured osmolality of 290 mOsm. […]

For test [3], the system named is db/db muscle fibers. The description is as above. Format: cell-based, mouse. The protocol: as §1, §2, §3, §4
Test [4] relates to extensor digitorum longus (EDL) of non-fasted db/db mice. Nature of the test: Ex vivo contractility assay, force recovery after fatigue. More on the design: species or system mouse. The procedure:
Application of GLP1 can improve contractility in skeletal muscle from diabetic mice. […] This leads us to test whether the increased Ca sparks activity can be translated as increased muscle force as measured by ex vivo contractility assays. The extensor digitorum longus (EDL) of non-fasted db/db mice is mounted to a force transducer and electrically stimulated following the protocol shown in FIG. 11. A 10 fold higher dose of GLP1 (100 nM) used in the Ca^2+ spark experiments is applied to the contractility study, to take into account the increased mass of the anatomical muscle over the isolated muscle fiber. Muscles were tested for their maximum force (Tmax) produced at various frequencies and then fatigued using rapid pulses of an electric field, which was then followed by another measurement of Tmax. Following 1 hour of GLP1 application, this stimulation protocol was repeated on the same muscles (FIG. 11a). Calculating the ratio of Tmax before and after GLP1 application will show how the application of GLP1 can influence the recovery of muscle function following fatigue.
Intact EDL and soleus muscle isolation. Intact EDL and soleus muscles were dissected from mice and maintained in Isotonic Tyrode solution supplemented with 12 mM glucose, continuously bubbled with 100% O2. […] Muscles were mounted vertically on a glass-stimulating apparatus (Radnoti) with platinum electrodes and attached to a movable isometric force transducer and to a stationary anchor, which allowed muscles to be stretched until both maximal forces for a given frequency and the frequency producing Tmax were obtained.
Force measurements during fatigue. A Powerlab computer-interface program (ADInstruments) was used to control the electrical stimulation protocols and to record, digitize and store force output data. […] Forces were normalized into gram after calibration and all data were analyzed by Origin software (OriginLab). […]
as §4

Test [5] concerns rat's soleus muscle. The settings on record: rat soleus incubated with GLP1; cited from earlier work.
The nature of test [6]: Insulin challenge, blood glucose after bolus IP injection. Format: in vivo, mouse. The settings on record: IP injection of insulin. The protocol: FIG. 6. Mice null for MG29 (mg29−/−) display compromised response to insulin challenge. Fasting blood glucose levels were measured in mice following a bolus IP injection of insulin at time 0 on chart. […] Mean±SEM is shown. ANOVA is used for analysis with **: P<0.01;***P<0.001.

Entries after “also recorded” stand apart in the source; their conditions may differ. Read-outs that look alike come from different tables or passages of the source. No end group written: not given here.

In the case of `N[C@@H](CC(=O)N1CCn2c(nnc2C(F)(F)F)C1)Cc1cc(F)c(F)cc1F` [Januvia, Sitagliptin], the blood glucose entry in test [1] was “normalization”.

In the case of “GLP1 7-36 Amide (HAEGTFTSDVSSYLEGQAAKEFIAWLVKGR-NH2; UniProt P01275 98-127, looked up) [Glucagon like peptide 1 (GLP1) of pro-glucagon origin is a type of incretin hormone; obtained from Sigma]”, in test [2] (WT fibers), the “peripheral subsarcolemmal distribution of Ca2+ sparks” value was “does not alter”. In addition, the “Ca2+ spark frequency” value in test [2] (WT muscle) is given as “minimal increases”. The “Ca2+ spark events / frequency” value in test [3] (db/db FDB fibers after osmotic shock, GLP1 10 nM for 1 hour) is recorded as “significantly improves; also recorded: can be reversed; also recorded: significant increased”. In test [3] (db/db fibers, GLP1 treatment), the “peripheral subsarcolemmal distribution of Ca2+ sparks” value is “does not alter”. Besides, in test [3] (db/db mice, high blood glucose >330 mg/dL vs lower blood glucose <260 mg/dL), the “GLP1 effect on Ca2+ sparks by blood glucose group” value is “maximum activity on db/db mice that exhibit high hyperglycemia condition”. For the same compound, in test [4] (after GLP1 treatment, 100 nM), the twitch ratio entry is “no significant change”. For the same compound, the “Tmax recovery ratio (maximal force after fatigue to before fatigue)” value in test [4] (db/db EDL, 100 nM GLP1 for 1 h) is listed as “back to the levels seen in the WT muscles; also recorded: improves muscle force”. Further, the force frequency relationship result in test [4] (db/db muscle, 100 nM GLP1) is “did not significantly alter”. In test [5], the PKB activity result is given as “increased” and the glycogen synthase activity result was “increased”.

For insulin, the blood glucose level result in test [6] (mg29-/- mice) is listed as “much less effect”. Further, the blood glucose result in test [6] (wild type control animals) is “significant decrease”.
